Assay results taken from patent US11345711B2, “8,9-dihydroimidazo[1,2-a]pyrimido[5,4-e]pyrimidin-5(6H)-ones” (IMPACT THERAPEUTICS (SHANGHAI), INC, priority 2016, dated 2022).
Like-named read-outs stand apart in the source and are kept apart here.

Key:
LoVo cells = assay: MTT based cell viability assay on LoVo cells; conditions: Homo sapiens, LoVo, 72 h, 3 d, read-out: IC50, growth inhibition of LoVo cells
Outline: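 Inhibition of LoVo proliferation was derived as IC50 from a sigmoidal dose-response fit of cell survival. Readout was MTT (0.5 mg/mL, 4 h) with absorbance at 552/630/690 nm, after 3-day treatment at 37 °C. Eight-point series from 10 μM to 0.01 μM, DMSO control, 1% DMSO final.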

NCI-H1299 cells = assay: MTT based cell viability assay on NCI-H1299 cells; conditions: Homo sapiens, read-out: IC50, growth inhibition of NCI-H1299 cells
Outline: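 NCI-H1299 cells (1000/well, settled overnight) were exposed for 3 d at 37 °C, 5% CO2, to an eight-point series of 10 μM to 0.01 μM plus DMSO blank, as prepared in DMSO (final DMSO 1‰). MTT (0.5 mg/mL, 4 h) was read at 552/630/690 nm. IC50 came from sigmoidal dose-response fits of survival.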

Wee1 (h) = Wee1 (h) (Homo sapiens, UniProt P30291); assay: Wee1 kinase (h) detection method, [γ-33P]-ATP filter assay; format: biochemical
Chain of Wee1 (h) (P30291 whole entry): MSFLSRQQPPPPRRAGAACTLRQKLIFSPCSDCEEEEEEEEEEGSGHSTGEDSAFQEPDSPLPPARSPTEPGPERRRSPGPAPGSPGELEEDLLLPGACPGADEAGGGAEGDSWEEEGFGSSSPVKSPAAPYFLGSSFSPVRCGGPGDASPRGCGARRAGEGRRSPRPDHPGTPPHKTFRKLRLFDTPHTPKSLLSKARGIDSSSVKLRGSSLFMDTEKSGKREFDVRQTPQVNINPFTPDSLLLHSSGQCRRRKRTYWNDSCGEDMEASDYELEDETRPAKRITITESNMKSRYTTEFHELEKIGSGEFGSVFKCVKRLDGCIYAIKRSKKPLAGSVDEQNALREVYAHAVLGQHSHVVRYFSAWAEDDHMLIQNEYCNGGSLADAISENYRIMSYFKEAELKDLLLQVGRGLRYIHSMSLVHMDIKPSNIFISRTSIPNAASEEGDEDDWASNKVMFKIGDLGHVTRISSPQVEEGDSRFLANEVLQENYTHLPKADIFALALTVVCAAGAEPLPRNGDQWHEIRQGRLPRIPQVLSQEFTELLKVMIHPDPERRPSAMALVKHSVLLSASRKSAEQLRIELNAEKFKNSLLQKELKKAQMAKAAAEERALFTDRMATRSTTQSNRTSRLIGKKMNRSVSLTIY

Row | SMILES | IC50 (LoVo cells) [nM] | IC50 (NCI-H1299 cells; NCI-H1299, NCI-H1299 cells) [nM] | Inh. (%) of Wee1 kinase enzyme activity (Wee1 (h); C 0.01 μm compound) [%] | Inh. (%) of Wee1 kinase enzyme activity (Wee1 (h); C 0.1 μm compound) [%] | Inh. (%) of Wee1 kinase enzyme activity (Wee1 (h); C 1 μm compound) [%] | IC50 (NCI-H1299 cells; NCI-H1299 cells) [nM]
1 | Cc1cc(Nc2ncc3c(n2)N2CCN=C2N(c2c(Cl)cccc2Cl)C3=O)cc(Cl)c1N1C[C@@H](C)N(C)[C@@H](C)C1 [Example 137, 6-(2,6-Dichlorophenyl)-2-((3-chloro-5-methyl-4-((3S,5R)-3,4,5-trimethylpiperazin-1-yl)phenyl)amino)-8,9-dihydroimidazo[1,2-a]pyrimido[5,4-e]pyrimidin-5(6H)-one] | 114 | 122 | 20 | 78 | 96 | –
2 | CN(C)C1CCN(c2ccc(Nc3ncc4c(n3)N3CCN=C3N(c3c(Cl)cccc3Cl)C4=O)cc2)CC1 [Example 138, 6-(2,6-Dichlorophenyl)-2-((4-(4-(dimethylamino)piperidin-1-yl)phenyl)amino)-8,9-dihydroimidazo[1,2-a]pyrimido[5,4-e]pyrimidin-5(6H)-one] | 199 | 170 | 22 | 77 | 96 | –
3 | CN(C)C1CCN(c2ccc(Nc3ncc4c(n3)N3CCN=C3N(c3c(Cl)cccc3Cl)C4=O)cc2Cl)CC1 [Example 139, 6-(2,6-Dichlorophenyl)-2-((3-chloro-4-(4-(dimethylamino)piperidin-1-yl)phenyl)amino)-8,9-dihydroimidazo[1,2-a]pyrimido[5,4-e]pyrimidin-5(6H)-one] | 45.6 | 85.9 | 31 | 81 | 95 | –
4 | CN(C)C1CCN(c2ccc(Nc3ncc4c(n3)N3CCN=C3N(c3c(Cl)cccc3Cl)C4=O)cc2Br)CC1 [Example 140, 6-(2,6-Dichlorophenyl)-2-((3-bromo-4-(4-(dimethylamino)piperidin-1-yl)phenyl)amino)-8,9-dihydroimidazo[1,2-a]pyrimido[5,4-e]pyrimidin-5(6H)-one] | 58.2 | 92.9 | 32 | 82 | 98 | –
5 | CN(C)C1CCN(c2c(Cl)cc(Nc3ncc4c(n3)N3CCN=C3N(c3c(Cl)cccc3Cl)C4=O)cc2Cl)CC1 [Example 142, 6-(2,6-Dichlorophenyl)-2-((3,5-dichloro-4-(4-(dimethylamino)piperidin-1-yl)phenyl)amino)-8,9-dihydroimidazo[1,2-a]pyrimido[5,4-e]pyrimidin-5(6H)-one] | 51.4 | 109 | 22 | 75 | 95 | –
6 | COc1cc(Nc2ncc3c(n2)N2CCN=C2N(c2c(Cl)cccc2Cl)C3=O)cc(Cl)c1N1CCC(N(C)C)CC1 [Example 144, 6-(2,6-Dichlorophenyl)-2-((3-chloro-4-(4-(dimethylamino)piperidin-1-yl)-5-methoxyphenyl)amino)-8,9-dihydroimidazo[1,2-a]pyrimido[5,4-e]pyrimidin-5(6H)-one] | 61.5 | 140 | 19 | 76 | 97 | –
7 | CN1CCN(c2ccc(Nc3ncc4c(n3)N3CCN=C3N(c3c(Cl)cccc3Cl)C4=O)cc2Br)CC1 [Example 145, 6-(2,6-Dichlorophenyl)-2-((3-bromo-4-(4-methylpiperazin-1-yl)phenyl)amino)-8,9-dihydroimidazo[1,2-a]pyrimido[5,4-e]pyrimidin-5(6H)-one] | 84.9 | – | 21 | 72 | 97 | 219
8 | COc1cc(Nc2ncc3c(n2)N2CCN=C2N(c2c(Cl)cccc2Cl)C3=O)ccc1N1CCN(C)CC1 [Example 146, 6-(2,6-Dichlorophenyl)-2-((3-methoxy-4-(4-methylpiperazin-1-yl)phenyl)amino)-8,9-dihydroimidazo[1,2-a]pyrimido[5,4-e]pyrimidin-5(6H)-one] | 83.3 | – | 9 | 85 | 95 | 250
9 | CN1CCN(c2c(F)cc(Nc3ncc4c(n3)N3CCN=C3N(c3c(Cl)cccc3Cl)C4=O)cc2Cl)CC1 [Example 147, 6-(2,6-Dichlorophenyl)-2-((3-chloro-5-fluoro-4-(4-methylpiperazin-1-yl)phenyl)amino)-8,9-dihydroimidazo[1,2-a]pyrimido[5,4-e]pyrimidin-5(6H)-one] | 91.1 | 209 | 42 | 86 | 96 | –
